Activity calls are given as the source filed them.
Legend:
Assay type in all cases: functional, organism-based
[1] = system: Staphylococcus aureus; assay: Antimicrobial activity against catheter-associated biofilm of methicillin-resistant Staphylococcus aureus assessed as reduction of CFU
[2] = system: Staphylococcus aureus; assay: Antimicrobial activity against catheter-associated biofilm of methicillin-sensitive Staphylococcus aureus assessed as reduction of CFU
[3] = system: Staphylococcus epidermidis; assay: Antimicrobial activity against catheter-associated biofilm of methicillin-resistant Staphylococcus epidermidis assessed as reduction of CFU
[4] = system: Klebsiella pneumoniae; assay: Antimicrobial activity against catheter-associated biofilm of Klebsiella pneumoniae assessed as reduction of CFU
[5] = system: Acinetobacter baumannii; assay: Antimicrobial activity against catheter-associated biofilm of Acinetobacter baumannii assessed as reduction of CFU
[6] = system: Staphylococcus aureus; assay: Antimicrobial activity against catheter-associated biofilm of methicillin-resistant Staphylococcus aureus
[7] = system: Staphylococcus epidermidis; assay: Antimicrobial activity against catheter-associated biofilm of methicillin-resistant Staphylococcus epidermidis
[8] = system: Klebsiella pneumoniae; assay: Antimicrobial activity against catheter-associated biofilm of Klebsiella pneumoniae

Measured: Activity

CN(C)c1cc(NC(=O)CNC(C)(C)C)c(O)c2c1C[C@H]1C[C@H]3[C@H](N(C)C)C(O)=C(C(N)=O)C(=O)[C@@]3(O)C(O)=C1C2=O
active: [1] | [2] | [3] | [4] | [5]

CC(=O)N[C@@H](CS)C(=O)O
active: [6] | [7] | [8]

— ChEMBL document CHEMBL1145537, “Combination of tigecycline and N-acetylcysteine reduces biofilm-embedded bacteria on vascular catheters” (Antimicrob Agents Chemother, 2007)
